Measurements as given in patent US10047105B2, “Gyrase inhibitors” (Merck Sharp & Dohme Corp., priority 2009, dated 2018).
Converted amounts (≈) assume the structure as drawn.

Experiments:
S. aureus ATCC 13709 = assay: MIC, antibacterial potency, S. aureus; assay type: cell-based; settings: S. aureus
S. pneumoniae ATCC 51916 = assay: MIC, S. pneumoniae; assay type: cell-based; settings: S. pneumoniae

Compound | MIC, SA (S. aureus ATCC 13709) [µg/mL] | MIC Spn52 (S. pneumoniae ATCC 51916) [µg/mL]
CCOC(=O)c1ccc(CNc2nc(Sc3cccnc3)nc3[nH]c(CC)c(C=O)c23)o1 [700,135] | > 64 | –
CCc1[nH]c2nc(Sc3cccnc3)nc(N(C)C)c2c1C=O [700,136] | 16 (≈ 48.9 µM) | –
CCc1[nH]c2nc(Sc3cccnc3)nc(N(C)CCN(C)C)c2c1C=O [700,137] | 64 (≈ 166 µM) | –
CCc1[nH]c2nc(Sc3cccnc3)nc(NCCCCCC(=O)O)c2c1C=O [700,141] | 64 (≈ 155 µM) | –
CCc1[nH]c2nc(Sc3cccnc3)nc(NC34CC5CC(C3)C(=O)C(C5)C4)c2c1C=O [700,142] | 32 (≈ 71.5 µM) | –
CCc1[nH]c2nc(Sc3nc4ccccc4s3)nc(N)c2c1C [700,147] | > 64 | –
CCc1[nH]c2nc(SCc3cccnc3)nc(N)c2c1C [700,148] | > 64 | –
CCc1[nH]c2nc(Sc3cnc4ccccc4n3)nc(N)c2c1C [700,149] | > 64 | –
CCc1nc2c(N(C)C)nc(Sc3cccc(C(=O)O)c3)nc2[nH]1.O=C(O)C(F)(F)F [700,220] | > 64 | 64
CCc1[nH]c2nc(Sc3cccnc3)nc(NCCCn3ccnc3)c2c1C=O.O=C(O)C(F)(F)F.O=C(O)C(F)(F)F [700,261] | 16 | 32
CCc1[nH]c2nc(Sc3cccnc3)nc(Cl)c2c1Br.O=C(O)C(F)(F)F [700,267] | 2 | 16
CCc1[nH]c2nc(Sc3cccnc3)nc(Cl)c2c1Cl.O=C(O)C(F)(F)F [700,268] | 4 | 16
CCc1[nH]c2nc(Sc3cccnc3)nc(NCCCn3ccnc3)c2c1Br.O=C(O)C(F)(F)F.O=C(O)C(F)(F)F [700,269] | 4 | 16
CCc1[nH]c2nc(Sc3cccnc3)nc(NC[C@H](C)O)c2c1Br.O=C(O)C(F)(F)F [700,270] | 2 | 8
CCc1[nH]c2nc(Sc3cccnc3)nc(NCc3ccccc3OC)c2c1Br.O=C(O)C(F)(F)F [700,271] | > 64 | > 64
CCc1[nH]c2nc(Sc3cccnc3)nc(NC[C@H](C)O)c2c1Cl.O=C(O)C(F)(F)F [700,273] | 4 | 16
CCc1[nH]c2nc(Sc3cccnc3)nc(NCCCn3ccnc3)c2c1Cl.O=C(O)C(F)(F)F [700,274] | 4 | 16
CCOc1nc(Sc2cccnc2)nc2[nH]c(CC)c(Br)c12.O=C(O)C(F)(F)F [700,275] | 1 | 8
CCOc1nc(Sc2nc(C(=O)OC)cs2)nc2[nH]c(CC)c(Br)c12 [700,281] | 32 (≈ 72.2 µM) | 64 (≈ 144 µM)
CCc1[nH]c2nc(Sc3nc(C(=O)OC)cs3)nc(O)c2c1Br [700,282] | ≤ 0.5 | 4 (≈ 9.63 µM)
CCOc1nc(Sc2nc(C(=O)O)cs2)nc2[nH]c(CC)c(Br)c12 [700,286] | 4 (≈ 9.32 µM) | 32 (≈ 74.5 µM)
CCc1[nH]c2nc(Sc3cccnc3)nc(NCCNc3ccc(C(=O)O)cn3)c2c1C=O [700,287] | > 64 | > 64
CCOc1nc(S(C)(=O)=O)nc2[nH]c(CC)c(Br)c12 [700,288] | > 64 | 64 (≈ 184 µM)
CCOC(=O)c1coc(Sc2nc(OCC)c3c(Br)c(CC)[nH]c3n2)n1 [700,290] | > 64 | > 64

Compound | MIC, SA (S. aureus ATCC 13709) [µg/mL] | MIC Spn52 (S. pneumoniae ATCC 51916) [µg/mL]
CCOC(=O)c1cnc(Sc2nc(OCC)c3c(Br)c(CC)[nH]c3n2)s1 [700,291] | > 64 | > 64
CCOc1nc(Sc2nc(C(=O)O)co2)nc2[nH]c(CC)c(Br)c12 [700,292] | > 64 | > 64
CCOc1nc(Sc2ncc(C(=O)O)s2)nc2[nH]c(CC)c(Br)c12 [700,293] | 32 (≈ 74.5 µM) | 32 (≈ 74.5 µM)
CCOc1nc(Sc2nc(C(=O)N[C@H]3CCOC3=O)co2)nc2[nH]c(CC)c(Br)c12 [700,294] | > 64 | > 64
CCc1[nH]c2nc(Sc3cccc(NC(=O)OC)c3)nc(NC[C@H](C)O)c2c1Br [700,295] | > 64 | 32 (≈ 66.6 µM)
CCc1[nH]c2nc(Sc3cccc(CC(=O)OC)c3)nc(Cl)c2c1Br [700,296] | > 64 | 64 (≈ 145 µM)
CCOc1nc(Sc2cnc3cccnc3n2)nc2[nH]c(CC)c(Br)c12 [700,297] | ≤ 0.5 | 2 (≈ 4.64 µM)
CCOc1nc(Sc2cnc3cccnc3n2)nc2[nH]c(CC)c(Cl)c12 [700,298] | 2 (≈ 5.17 µM) | 8 (≈ 20.7 µM)
CCOc1nc(Sc2nc(C(=O)OC)c(C(C)C)s2)nc2[nH]c(CC)c(Br)c12 [700,301] | 64 (≈ 132 µM) | > 64
CCOc1nc(Sc2nc(C(=O)OC)c(C(C)C)s2)nc2[nH]c(CC)c(Cl)c12 [700,302] | 32 (≈ 72.6 µM) | > 64
CCOc1nc(Sc2nc(C(=O)O)c(C(C)C)s2)nc2[nH]c(CC)c(Br)c12 [700,303] | 4 (≈ 8.49 µM) | 32 (≈ 67.9 µM)
CCOc1nc(Sc2nc(C(=O)OC)c(C(C)C)s2)nc2[nH]c(CC)c(Cl)c12 [700,304] | 8 (≈ 18.1 µM) | 32 (≈ 72.6 µM)
CCOc1nc(Sc2cc(C(=O)NC3CC3)ccn2)nc2[nH]c(CC)c(Br)c12 [700,305] | > 64 | > 64
CCOc1nc(Sc2cc(C(=O)NC3CC3)ccn2)nc2[nH]c(CC)c(Cl)c12 [700,306] | > 64 | > 64
CCc1[nH]c2nc(Sc3cccc(CC(=O)O)c3)nc(Cl)c2c1Br [700,307] | 4 (≈ 9.37 µM) | 64 (≈ 150 µM)
Fc1ccc(Oc2nc(Nc3cccnc3)nc3[nH]cc(Br)c23)c(F)c1.O=C(O)C(F)(F)F [700,315] | 16 | 64
CCc1[nH]c2nc(Sc3nc(C(=O)O)cs3)nc(N3CC(Cc4c(Cl)ncnc4Cl)C3)c2c1Cl.O=C(O)C(F)(F)F [700,317] | > 64 | > 64
CCc1[nH]c2nc(Sc3nc(C(=O)O)cs3)nc(N3CC(Cc4cncnc4)C3)c2c1Cl.O=C(O)C(F)(F)F [700,318] | > 64 | > 64
CCc1[nH]c2nc(Sc3nc(C(=O)OC)cs3)nc(Cl)c2c1Cl [700,320] | > 64 | > 64
CCOc1nc(Sc2cc(C(=O)O)ccn2)nc2[nH]c(CC)c(Cl)c12 [700,321] | 64 (≈ 169 µM) | 64 (≈ 169 µM)
CCc1[nH]c2nc(Sc3nc(C(=O)O)cs3)nc(NC[C@H](C)O)c2c1Cl [700,322] | > 64 | > 64
CCc1[nH]c2nc(Sc3nc(C(=O)O)cs3)nc(NCCCn3ccnc3)c2c1Cl [700,323] | > 64 | > 64
CCOc1nc(Sc2ccc(NC3CC3)nn2)nc2[nH]c(CC)c(Cl)c12 [700,324] | > 64 | 64 (≈ 164 µM)
CCNc1ccc(Sc2nc(OCC)c3c(Cl)c(CC)[nH]c3n2)nn1 [700,325] | > 64 | > 64

Compound | MIC, SA (S. aureus ATCC 13709) [µg/mL] | MIC Spn52 (S. pneumoniae ATCC 51916) [µg/mL]
CCOc1nc(Sc2ccc(NCCCOC)nn2)nc2[nH]c(CC)c(Cl)c12 [700,326] | > 64 | 32 (≈ 75.7 µM)
CCOc1nc(Sc2ccc(N3CCC(O)CC3)nn2)nc2[nH]c(CC)c(Cl)c12 [700,327] | 32 (≈ 73.6 µM) | 64 (≈ 147 µM)
CCc1[nH]c2nc(Sc3nc(C(=O)OC)c(Cl)s3)nc(OCC3CCC3)c2c1Cl [700,328] | > 64 | 64 (≈ 135 µM)
CCOc1nc(Nc2cccnc2)nc2[nH]c(CC)c(Br)c12 [700,331] | 8 (≈ 22.1 µM) | > 64
CCc1[nH]c2nc(SC)nc(CCC3OCCCO3)c2c1Br [700,332] | > 64 | > 64
CCc1[nH]c2nc(SC)nc(CCCNCCN3CCOCC3)c2c1Br [700,334] | > 64 | > 64
CCc1[nH]c2nc(Sc3nc(C(=O)O)cs3)nc(N3CC(F)(F)C3)c2c1Cl.O=C(O)C(F)(F)F [700,338] | 8 | 64
CCOc1nc(Sc2nc(OC)c3cccnc3n2)nc2[nH]c(CC)c(Cl)c12 [700,339] | > 64 | > 64
CCc1[nH]c2nc(Sc3nc(C(=O)O)cs3)nc(N3CC(O)C3)c2c1Cl [700,340] | > 64 | > 64
CCOc1nc(Sc2ncc3cccnc3n2)nc2[nH]c(CC)c(Cl)c12 [700,341] | > 64 | > 64
CCc1[nH]c2nc(Sc3nc(C(=O)O)cs3)nc(NCCCNS(C)(=O)=O)c2c1Cl [700,342] | > 64 | > 64
CCc1[nH]c2nc(Sc3nc(C(=O)O)cs3)nc(NCCCNC(=N)N)c2c1Cl.O=C(O)C(F)(F)F [700,343] | > 64 | > 64
CCc1[nH]c2nc(Sc3cnc4cccnc4n3)nc(N3CC(O)C3)c2c1Cl [700,345] | ≤ 0.5 | 2 (≈ 4.83 µM)
CCc1[nH]c2nc(Sc3cnc4cccnc4n3)nc(N3CC(O)C3)c2c1Br [700,346] | ≤ 0.5 | ≤ 0.5
CCOc1nc(Sc2cc(=O)[nH]c(=O)[nH]2)nc2[nH]c(CC)c(Cl)c12 [700,347, 6-(5-chloro-4-ethoxy-6-ethyl-7H-pyrrolo[2,3-d]pyrimidin-2-ylthio)pyrimidine-2,4(1H,3H)-dione] | 1 (≈ 2.72 µM) | 8 (≈ 21.7 µM)
CCOc1nc(Nc2nc(C(=O)O)cs2)nc2[nH]c(CC)c(Br)c12.O=C(O)C(F)(F)F [700,350] | 32 | 64
Cc1[nH]c2nc(Sc3cnc4cccnc4n3)nc(N3CC(O)C3)c2c1C [700,351] | > 64 | > 64
CCc1[nH]c2nc(Sc3nc4ncccc4c(=O)[nH]3)nc(N3CC(O)C3)c2c1Cl [700,353] | > 64 | > 64
CCOc1nc(Nc2cccc(C(=O)O)c2)nc2[nH]c(CC)c(Br)c12.O=C(O)C(F)(F)F [700,354] | 2 | > 64
CCc1[nH]c2nc(Sc3nc(-c4nnn[nH]4)cs3)nc(N3CC(O)C3)c2c1Cl.Cl.Cl.Cl.Cl [700,355] | > 64 | > 64
CCc1[nH]c2nc(Sc3nc(C(=O)O)cs3)nc(N3CCN(C(C)=O)CC3)c2c1Cl.O=C(O)C(F)(F)F [700,356] | > 64 | > 64
CCc1[nH]c2nc(Sc3cc(=O)n(CCc4ccccc4)c(=O)[nH]3)nc(N3CC(O)C3)c2c1Br [700,413] | – | 8 (≈ 14.7 µM)
